The values that follow come from patent US20220177508A1, “C10-Cyclic Substituted 13-Membered Macrolides and Uses Thereof” (Zikani Therapeutics, Inc., priority 2018, published 2022).

Assay type in all cases: cell-based
One assay has as its system K. pneumoniae MP-546. The assay is described as follows: Broth dilution MIC determination (CLSI), K. pneumoniae MP-546. As to conditions: Klebsiella pneumoniae, MP546; strain MP-546, broth dilution. (In general: In broth dilution the organism is exposed to a series of concentrations in liquid medium.)
A further assay relates to S. aureus MP-12. Put plainly: Broth dilution MIC determination (CLSI), S. aureus MP-12. As to conditions: Staphylococcus aureus, MP12; strain MP-12, broth dilution.
The next assay relates to A. baumannii MP-15. The assay is described as follows: Broth dilution MIC determination (CLSI), A. baumannii MP-15. As to conditions: Acinetobacter baumannii, MP15; strain MP-15, broth dilution; read-out: MIC A. baumanii MP-15.
A further assay relates to E. coli MP-4. The assay is described as follows: Broth dilution MIC determination (CLSI), E. coli MP-4. The following applies: Escherichia coli, MP4; strain MP-4, broth dilution; read-out: MIC E. coli MP-4.
Another assay has as its system P. aeruginosa MP-3. Put plainly: Broth dilution MIC determination (CLSI), P. aeruginosa MP-3. As to conditions: Pseudomonas aeruginosa, MP3; strain MP-3, broth dilution.

≈ marks a conversion by molar mass, not a printed value.

In the case of `CO[C@]1(C)C[C@@H](C)CN(C)[C@H](C2CCN(C(=O)CN(C)C)CC2)COC(=O)C(C)(C)C(=O)[C@H](C)[C@H]1O[C@@H]1O[C@H](C)C[C@H](N(C)C)[C@H]1O` [Compound 85, (3R,6R,8R,9R,10R)-9-(((2S,3R,4S,6R)-4-(dimethylamino)-3-hydroxy-6-methyltetrahydro-2H-pyran-2-yl)oxy)-3-(1-(dimethylglycyl)piperidin-4-yl)-8-methoxy-4,6,8,10,12,12-hexamethyl-1-oxa-4-azacyclotridecane-11,13-dione], the MIC in the assay on K. pneumoniae MP-546 is 4 to 32 µg/mL (≈ 5.98 to 47.8 µM); against S. aureus MP-12, more than 32 µg/mL; in the assay on A. baumannii MP-15, more than 32 µg/mL; with E. coli MP-4, less than 4 µg/mL; against P. aeruginosa MP-3, more than 32 µg/mL.
In the case of `CO[C@]1(C)C[C@@H](C)CN(C)[C@H](C2CC3CCC(C2)N3CC(C)C)COC(=O)C(C)(C)C(=O)[C@H](C)[C@H]1O[C@@H]1O[C@H](C)C[C@H](N(C)C)[C@H]1O` (stereo partly drawn) [Compound 87, (3R,6R,8R,9R,10R)-9-(((2S,3R,4S,6R)-4-(dimethylamino)-3-hydroxy-6-methyltetrahydro-2H-pyran-2-yl)oxy)-3-(8-isobutyl-8-azabicyclo[3.2.1]octan-3-yl)-8-methoxy-4,6,8,10,12,12-hexamethyl-1-oxa-4-azacyclotridecane-11,13-dione], the MIC in the assay on K. pneumoniae MP-546 is 4 to 32 µg/mL (≈ 6.01 to 48.1 µM); with S. aureus MP-12, less than 4 µg/mL; in the assay on A. baumannii MP-15, more than 32 µg/mL; in the assay with E. coli MP-4, less than 4 µg/mL; with P. aeruginosa MP-3, more than 32 µg/mL.
Regarding `CO[C@]1(C)C[C@@H](C)CN(C)[C@H](C2CCCCC2)COC(=O)C(C)(C)C(=O)[C@H](C)[C@H]1O[C@@H]1O[C@H](C)C[C@H](N(C)C)[C@H]1O` [Compound 88, (3R,6R,8R,9R,10R)-3-cyclohexyl-9-(((2S,3R,4S,6R)-4-(dimethylamino)-3-hydroxy-6-methyltetrahydro-2H-pyran-2-yl)oxy)-8-methoxy-4,6,8,10,12,12-hexamethyl-1-oxa-4-azacyclotridecane-11,13-dione], the MIC in the assay on K. pneumoniae MP-546, in the assay with S. aureus MP-12, in the assay with A. baumannii MP-15, with E. coli MP-4 and against P. aeruginosa MP-3 was more than 32 µg/mL throughout.
On to `CO[C@]1(C)C[C@@H](C)CN(C)[C@@H]([C@H]2CCCN(C)C2)COC(=O)C(C)(C)C(=O)[C@H](C)[C@H]1O[C@@H]1O[C@H](C)C[C@H](N(C)C)[C@H]1O` [Compound 89, (3S,6R,8R,9R,10R)-9-(((2S,3R,4S,6R)-4-(dimethylamino)-3-hydroxy-6-methyltetrahydro-2H-pyran-2-yl)oxy)-8-methoxy-4,6,8,10,12,12-hexamethyl-3-((S)-1-methylpiperidin-3-yl)-1-oxa-4-azacyclotridecane-11,13-dione], for which the MIC was more than 32 µg/mL in the assay on K. pneumoniae MP-546; more than 32 µg/mL against S. aureus MP-12; more than 32 µg/mL in the assay on A. baumannii MP-15; 4 to 32 µg/mL (≈ 6.69 to 53.5 µM) in the assay with E. coli MP-4; more than 32 µg/mL against P. aeruginosa MP-3.
Turning to `CO[C@]1(C)C[C@@H](C)CN(C)[C@H]([C@@H]2CCCN(C(C)C)C2)COC(=O)C(C)(C)C(=O)[C@H](C)[C@H]1O[C@@H]1O[C@H](C)C[C@H](N(C)C)[C@H]1O` [Compound 90, (3R,6R,8R,9R,10R)-9-(((2S,3R,4S,6R)-4-(dimethylamino)-3-hydroxy-6-methyltetrahydro-2H-pyran-2-yl)oxy)-3-((R)-1-isopropylpiperidin-3-yl)-8-methoxy-4,6,8,10,12,12-hexamethyl-1-oxa-4-azacyclotridecane-11,13-dione], the MIC against K. pneumoniae MP-546 was 4 to 32 µg/mL (≈ 6.39 to 51.1 µM); against S. aureus MP-12, more than 32 µg/mL; in the assay with A. baumannii MP-15 it was more than 32 µg/mL; in the assay on E. coli MP-4, 4 to 32 µg/mL (≈ 6.39 to 51.1 µM); with P. aeruginosa MP-3, more than 32 µg/mL.
For `CO[C@]1(C)C[C@@H](C)CN(C)[C@H](C2CN(CC3COC3)C2)COC(=O)C(C)(C)C(=O)[C@H](C)[C@H]1O[C@@H]1O[C@H](C)C[C@H](N(C)C)[C@H]1O` [Compound 91, (3R,6R,8R,9R,10R)-9-(((2S,3R,4S,6R)-4-(dimethylamino)-3-hydroxy-6-methyltetrahydro-2H-pyran-2-yl)oxy)-8-methoxy-4,6,8,10,12,12-hexamethyl-3-(1-(oxetan-3-ylmethyl)azetidin-3-yl)-1-oxa-4-azacyclotridecane-11,13-dione], the MIC was 4 to 32 µg/mL (≈ 6.39 to 51.1 µM) in the assay on K. pneumoniae MP-546; more than 32 µg/mL in the assay with S. aureus MP-12; more than 32 µg/mL with A. baumannii MP-15; less than 4 µg/mL with E. coli MP-4; more than 32 µg/mL with P. aeruginosa MP-3.
In the case of `CO[C@]1(C)C[C@@H](C)CN(C)[C@H](C2CCN(CC(F)(F)F)CC2)COC(=O)C(C)(C)C(=O)[C@H](C)[C@H]1O[C@@H]1O[C@H](C)C[C@H](N(C)C)[C@H]1O` [Compound 92, (3R,6R,8R,9R,10R)-9-(((2S,3R,4S,6R)-4-(dimethylamino)-3-hydroxy-6-methyltetrahydro-2H-pyran-2-yl)oxy)-8-methoxy-4,6,8,10,12,12-hexamethyl-3-(1-(2,2,2-trifluoroethyl)piperidin-4-yl)-1-oxa-4-azacyclotridecane-11,13-dione], the MIC against K. pneumoniae MP-546 is more than 32 µg/mL; against S. aureus MP-12, 4 to 32 µg/mL (≈ 6.01 to 48.1 µM); in the assay on A. baumannii MP-15 it was more than 32 µg/mL; with E. coli MP-4, 4 to 32 µg/mL (≈ 6.01 to 48.1 µM); against P. aeruginosa MP-3, more than 32 µg/mL.
Take `CO[C@]1(C)C[C@@H](C)CN(C)[C@H](c2ccc(-c3cccc(N)c3)cc2)COC(=O)C(C)(C)C(=O)[C@H](C)[C@H]1O[C@@H]1O[C@H](C)C[C@H](N(C)C)[C@H]1O` [Compound 93, (3R,6R,8R,9R,10R)-3-(3′-Amino-[1,1′-biphenyl]-4-yl)-9-(((2S,3R,4S,6R)-4-(dimethylamino)-3-hydroxy-6-methyltetrahydro-2H-pyran-2-yl)oxy)-8-methoxy-4,6,8,10,12,12-hexamethyl-1-oxa-4-azacyclotridecane-11,13-dione]: the MIC against K. pneumoniae MP-546 was more than 32 µg/mL; with S. aureus MP-12, 4 to 32 µg/mL (≈ 5.99 to 47.9 µM); in the assay on A. baumannii MP-15 it was more than 32 µg/mL; with E. coli MP-4 it was 4 to 32 µg/mL (≈ 5.99 to 47.9 µM); with P. aeruginosa MP-3, more than 32 µg/mL.
As to `CO[C@]1(C)C[C@@H](C)CN(C)[C@H]([C@H]2CCCN(C(=O)CN(C)C)C2)COC(=O)C(C)(C)C(=O)[C@H](C)[C@H]1O[C@@H]1O[C@H](C)C[C@H](N(C)C)[C@H]1O` [Compound 96, (3R,6R,8R,9R,10R)-9-(((2S,3R,4S,6R)-4-(dimethylamino)-3-hydroxy-6-methyltetrahydro-2H-pyran-2-yl)oxy)-3-((S)-1-(dimethylglycyl)piperidin-3-yl)-8-methoxy-4,6,8,10,12,12-hexamethyl-1-oxa-4-azacyclotridecane-11,13-dione], the MIC was more than 32 µg/mL against K. pneumoniae MP-546; more than 32 µg/mL in the assay on S. aureus MP-12; more than 32 µg/mL in the assay with A. baumannii MP-15; 4 to 32 µg/mL (≈ 5.98 to 47.8 µM) with E. coli MP-4; more than 32 µg/mL against P. aeruginosa MP-3.
Regarding `CO[C@]1(C)C[C@@H](C)CN(C)[C@@H](C2CCNCC2)COC(=O)C(C)(C)C(=O)[C@H](C)[C@H]1O[C@@H]1O[C@H](C)C[C@H](N(C)C)[C@H]1O` [Compound 98, (3S,6R,8R,9R,10R)-9-(((2S,3R,4S,6R)-4-(dimethylamino)-3-hydroxy-6-methyltetrahydro-2H-pyran-2-yl)oxy)-8-methoxy-4,6,8,10,12,12-hexamethyl-3-(piperidin-4-yl)-1-oxa-4-azacyclotridecane-11,13-dione], the MIC is 4 to 32 µg/mL (≈ 6.85 to 54.8 µM) against K. pneumoniae MP-546; 4 to 32 µg/mL (≈ 6.85 to 54.8 µM) with S. aureus MP-12; more than 32 µg/mL in the assay on A. baumannii MP-15; less than 4 µg/mL with E. coli MP-4; more than 32 µg/mL against P. aeruginosa MP-3.
`CO[C@]1(C)C[C@@H](C)CN(C)[C@@H](C2CN(C)C2)COC(=O)C(C)(C)C(=O)[C@H](C)[C@H]1O[C@@H]1O[C@H](C)C[C@H](N(C)C)[C@H]1O` [Compound 99, (3S,6R,8R,9R,10R)-9-(((2S,3R,4S,6R)-4-(dimethylamino)-3-hydroxy-6-methyltetrahydro-2H-pyran-2-yl)oxy)-8-methoxy-4,6,8,10,12,12-hexamethyl-3-(1-methylazetidin-3-yl)-1-oxa-4-azacyclotridecane-11,13-dione]: the MIC in the assay on K. pneumoniae MP-546 was less than 4 µg/mL; in the assay with S. aureus MP-12, more than 32 µg/mL; in the assay with A. baumannii MP-15, more than 32 µg/mL; in the assay with E. coli MP-4, less than 4 µg/mL; against P. aeruginosa MP-3, more than 32 µg/mL.
For `CO[C@]1(C)C[C@@H](C)CN(C)[C@H]([C@H]2CCN(C(=O)CN(C)C)C2)COC(=O)C(C)(C)C(=O)[C@H](C)[C@H]1O[C@@H]1O[C@H](C)C[C@H](N(C)C)[C@H]1O` [Compound 100, (3R,6R,8R,9R,10R)-9-(((2S,3R,4S,6R)-4-(Dimethylamino)-3-hydroxy-6-methyltetrahydro-2H-pyran-2-yl)oxy)-3-((S)-1-(dimethylglycyl)pyrrolidin-3-yl)-8-methoxy-4,6,8,10,12,12-hexamethyl-1-oxa-4-azacyclotridecane-11,13-dione], the MIC in the assay on K. pneumoniae MP-546 is 4 to 32 µg/mL (≈ 6.11 to 48.9 µM); in the assay with S. aureus MP-12 it was more than 32 µg/mL; in the assay with A. baumannii MP-15, more than 32 µg/mL; in the assay on E. coli MP-4 it was 4 to 32 µg/mL (≈ 6.11 to 48.9 µM); in the assay on P. aeruginosa MP-3 it was more than 32 µg/mL.
Consider `CO[C@]1(C)C[C@@H](C)CN(C)[C@H](C2CN(Cc3ccccc3)C2)COC(=O)C(C)(C)C(=O)[C@H](C)[C@H]1O[C@@H]1O[C@H](C)C[C@H](N(C)C)[C@H]1O` [Compound 101, (3R,6R,8R,9R,10R)-3-(1-benzylazetidin-3-yl)-9-(((2S,3R,4S,6R)-4-(dimethylamino)-3-hydroxy-6-methyltetrahydro-2H-pyran-2-yl)oxy)-8-methoxy-4,6,8,10,12,12-hexamethyl-1-oxa-4-azacyclotridecane-11,13-dione], for which the MIC was less than 4 µg/mL against K. pneumoniae MP-546; 4 to 32 µg/mL (≈ 6.19 to 49.5 µM) in the assay with S. aureus MP-12; 4 to 32 µg/mL (≈ 6.19 to 49.5 µM) in the assay with A. baumannii MP-15; less than 4 µg/mL in the assay on E. coli MP-4; more than 32 µg/mL in the assay on P. aeruginosa MP-3.

By MIC is commonly meant the smallest concentration in the dilution series that meets the test's criterion for growth inhibition.
